# Laboratory results as given in patent publication US7569547B2, “Inhibiting furin with polybasic peptides” (Board of Supervisors of Louisiana State University and …, priority 2001, dated 2009).
# “Also recorded” adds a separate entry of the source.
# Legend:
# [1] = tested on: Pseudomonas exotoxin A (PEA) in HEK293 cells; test: Protection of HEK293 cells from death caused by Pseudomonas exotoxin A (WST); type: cell-based, human
# Excerpt: Pseudomonas exotoxin A (PEA) must be cleaved by furin at the cell surface to gain entry into a cell, which typically causes cell death. […] We inferred that the D6R blocked the cleavage of PEA by furin, thus preventing its activation.
# [2] = tested on: HEK293 cells; test: Growth of HEK293 cells monitored with the dye WST (cytotoxicity); type: cell-based, human
# Procedure: HEK293 cells were seeded into 96-well plates at the densities indicated. Their growth rates were monitored using the dye WST, which is cleaved by mitochondrial dehydrogenases to a […] dye only in viable cells.
# [3] = tested on: HIV; test: Formation of syncytia by HIV in vitro in MT4 T cells; type: cell-based; conditions: micromolar concentrations, MT4 line of T cells, preliminary data (not shown)
# Excerpt: The administration of polyarginines and other polybasic peptides in accordance with the present invention may be used to combat bacterial and viral infections, and to inhibit the growth of certain cancers. Preliminary data, for example, show activity against Pseudomonas exotoxin, and against HIV.
# [4] = biological target: T1, PC2 (Mus musculus, UniProt P21661)
# T1 sequence (P21661 109-637): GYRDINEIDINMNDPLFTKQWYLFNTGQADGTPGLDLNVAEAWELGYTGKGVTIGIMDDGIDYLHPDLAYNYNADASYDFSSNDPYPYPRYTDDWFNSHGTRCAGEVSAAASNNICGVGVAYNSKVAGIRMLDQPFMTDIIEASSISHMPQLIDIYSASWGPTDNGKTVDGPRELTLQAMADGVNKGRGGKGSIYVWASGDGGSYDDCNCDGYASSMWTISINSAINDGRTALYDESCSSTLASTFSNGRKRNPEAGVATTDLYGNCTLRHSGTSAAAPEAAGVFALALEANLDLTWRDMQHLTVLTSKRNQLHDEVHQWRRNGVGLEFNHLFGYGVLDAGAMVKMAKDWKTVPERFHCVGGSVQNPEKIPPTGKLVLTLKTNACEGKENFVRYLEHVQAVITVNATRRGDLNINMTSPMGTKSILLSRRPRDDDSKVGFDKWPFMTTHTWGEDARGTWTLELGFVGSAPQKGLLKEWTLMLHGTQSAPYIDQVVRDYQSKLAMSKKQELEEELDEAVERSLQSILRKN
smiles,measurement,setting,value
N=C(N)NCCC[C@@H](NC(=O)[C@H](N)CCCN=C(N)N)C(=O)N[C@H](CCCNC(=N)N)C(=O)N[C@H](CCCNC(=N)N)C(=O)N[C@H](CCCNC(=N)N)C(=O)N[C@H](CCCN=C(N)N)C(=O)O [Hexa-D-arginine],amount of WST (absorbance),"[1]; HEK293, 1 μM D6R + 10 ng/mL PEA, 51 hours",0.52 ± 0.04
same,amount of WST (absorbance),"[1]; HEK293, 1 μM D6R + 10 ng/mL PEA, 76 hours",0.85 ± 0.02
same,amount of WST (absorbance),"[1]; HEK293, 1 μM D6R + 10 ng/mL PEA, 86 hours",0.83 ± 0.02
same,amount of WST (absorbance),"[1]; HEK293, 1 μM D6R + 10 ng/mL PEA, 96 hours",0.56 ± 0.04
same,amount of WST (absorbance),"[1]; HEK293, 10 μM D6R + 10 ng/mL PEA, 51 hours",0.54 ± 0.07
same,amount of WST (absorbance),"[1]; HEK293, 10 μM D6R + 10 ng/mL PEA, 76 hours",0.73 ± 0.05
same,amount of WST (absorbance),"[1]; HEK293, 10 μM D6R + 10 ng/mL PEA, 86 hours",0.71 ± 0.02
same,amount of WST (absorbance),"[1]; HEK293, 10 μM D6R + 10 ng/mL PEA, 96 hours",0.67 ± 0.01
same,amount of WST (absorbance),"[1]; HEK293, 100 μM D6R + 10 ng/mL PEA, 51 hours",0.51 ± 0.04
same,amount of WST (absorbance),"[1]; HEK293, 100 μM D6R + 10 ng/mL PEA, 76 hours",0.78 ± 0.03
same,amount of WST (absorbance),"[1]; HEK293, 100 μM D6R + 10 ng/mL PEA, 86 hours",0.61 ± 0.06
same,amount of WST (absorbance),"[1]; HEK293, 100 μM D6R + 10 ng/mL PEA, 96 hours",0.55 ± 0.02
same,effect on cell death caused by PEA,"[1]; HEK293 cells, 10 ng/mL PEA, 1 μM final concentration",reduced the cell death caused by PEA
same,protection of cells from killing by exotoxin,"[1]; preliminary data, summary statement",able to protect cells from killing
same,mean absorbance at 450 nm (WST),"[2]; HEK293, 2 μM D6R, 51 hour",0.69 ± 0.02
same,mean absorbance at 450 nm (WST),"[2]; HEK293, 2 μM D6R, 75 hour",1.25 ± 0.11
same,mean absorbance at 450 nm (WST),"[2]; HEK293, 2 μM D6R, 99 hour",1.42 ± 0.02
same,mean absorbance at 450 nm (WST),"[2]; HEK293, 4 μM D6R, 51 hour",0.64 ± 0.03
same,mean absorbance at 450 nm (WST),"[2]; HEK293, 4 μM D6R, 75 hour",1.28 ± 0.14
same,mean absorbance at 450 nm (WST),"[2]; HEK293, 4 μM D6R, 99 hour",1.39 ± 0.06
same,mean absorbance at 450 nm (WST),"[2]; HEK293, 6 μM D6R, 51 hour",0.63 ± 0.04
same,mean absorbance at 450 nm (WST),"[2]; HEK293, 6 μM D6R, 75 hour",1.13 ± 0.14
same,mean absorbance at 450 nm (WST),"[2]; HEK293, 6 μM D6R, 99 hour",1.48 ± 0.04
same,mean absorbance at 450 nm (WST),"[2]; HEK293, 8 μM D6R, 51 hour",0.67 ± 0.01
same,mean absorbance at 450 nm (WST),"[2]; HEK293, 8 μM D6R, 75 hour",1.36 ± 0.08
same,mean absorbance at 450 nm (WST),"[2]; HEK293, 8 μM D6R, 99 hour",1.40 ± 0.05
same,mean absorbance at 450 nm (WST),"[2]; HEK293, 10 μM D6R, 51 hour",0.64 ± 0.03
same,mean absorbance at 450 nm (WST),"[2]; HEK293, 10 μM D6R, 75 hour",1.28 ± 0.14
same,mean absorbance at 450 nm (WST),"[2]; HEK293, 10 μM D6R, 99 hour",1.49 ± 0.08
same,mean absorbance at 450 nm (WST),"[2]; HEK293, 30 μM D6R, 51 hour",0.64 ± 0.02
same,mean absorbance at 450 nm (WST),"[2]; HEK293, 30 μM D6R, 75 hour",1.29 ± 0.08
same,mean absorbance at 450 nm (WST),"[2]; HEK293, 30 μM D6R, 99 hour",1.45 ± 0.06
same,mean absorbance at 450 nm (WST),"[2]; HEK293, 60 μM D6R, 51 hour",0.66 ± 0.05
same,mean absorbance at 450 nm (WST),"[2]; HEK293, 60 μM D6R, 75 hour",1.17 ± 0.08
same,mean absorbance at 450 nm (WST),"[2]; HEK293, 60 μM D6R, 99 hour",1.48 ± 0.06
same,mean absorbance at 450 nm (WST),"[2]; HEK293, 100 μM D6R, 51 hour",0.62 ± 0.03
same,mean absorbance at 450 nm (WST),"[2]; HEK293, 100 μM D6R, 75 hour",1.19 ± 0.11
same,mean absorbance at 450 nm (WST),"[2]; HEK293, 100 μM D6R, 99 hour",1.47 ± 0.09
same,effect on growth of the cells,"[2]; HEK293 cells, 2-100 μM",did not significantly affect the growth of the cells
same,cytotoxicity,"[2]; HEK293 cells, up to 100 μM final concentration, preliminary data, listed as D6R",not toxic to cells; also recorded: did not appear to be cytotoxic
same,formation of syncytia by HIV,[3],inhibited the formation of syncytia
N=C(N)NCCC[C@H](NC(=O)[C@H](CCCNC(=N)N)NC(=O)[C@H](CCCNC(=N)N)NC(=O)[C@H](CCCNC(=N)N)NC(=O)[C@H](CCCNC(=N)N)NC(=O)[C@H](CCCNC(=N)N)NC(=O)[C@H](CCCNC(=N)N)NC(=O)[C@H](CCCNC(=N)N)NC(=O)[C@@H](N)CCCNC(=N)N)C(=O)O [Nona-L-arginine],cleavage by PC2,[4],essentially no cleavage
